Results as given in patent US20250250252A1, “PIPERIDINYLBENZONITRILE DERIVATIVES AS INHIBITORS OF GLUTAMINYL-PEPTIDE CYCLOTRANSFERASE AND GLUTAMINYL-PEPTIDE CYCLOTRANSFERASE LIKE PROTEIN” (Boehringer Ingelheim International GmbH, priority 2024, published 2025).

Key:
[1] = system: SIRPα signalling induced by A549 cells; assay: Assay B: SIRPα signalling assay using A549 cells; format: cell-based; settings: Homo sapiens, read-out: Inhibition of SIRPα signalling induced by A549 cells: IC50
Description: Two cell types are independently used: the Raji cell line (lymphoblast-like human cell line derived from B lymphocytes from a Burkitt's lymphoma patient in 1963) and A549 cells (adenocarcinomic human alveolar basal epithelial cells).
Test compounds were dissolved in 100% DMSO and serially diluted into a white 384-well microtiter cell culture plate (PerkinElmer #60076780 in case of Raji assay; PDL-coated plates Greiner #781945 in case of A549 assay). 5000 Raji cells (ATCC #CC86) or 5000 A549 cells (ATCC #CCL-185) in Assay Complete Cell Plating reagent 30 (DiscoverX 93-0563R30B) were added per well. The assay plate was incubated for 48 h at 37° C., 95% humidity and 5% CO2. 15000 reporter cells (Jurkat PathHunter SIRPαV1, DiscoverX #93-1135C19) were added to each well, and the plate was incubated for 5 h at 37° C., 95% humidity and 5% CO2. Bioassay reagent 1 of the PathHunter Bioassay detection kit (DiscoverX 93-0001) was added to each well of the plate using a multichannel pipette followed by a 15 min incubation at room temperature. Afterwards bioassay reagent 2 was added followed by 60 min incubation at room temperature (incubation in the dark).
The analysis of the data was performed using the luminescence signal generated by betagalactosidase in the PathHunter reporter cell line. The luminescence measurement was done using a Pherastar Multi-Mode Reader. Dose-response curves & IC50 data were calculated with 4-parameter sigmoidal dose response formula.

[2] = Assay C: Permeability in CACO-2 cells; format: in vitro ADME; settings: human, Assay C; for efflux ratio: Caco-2, pH 7.2, permeability B-A/permeability A-B, read-out: Efflux Ratio; for Papp A→B: pH 7.2, CACO-2 cells
Description: Caco-2 cells (1-2×10^5 cells/1 cm^2 area) are seeded on filter inserts (Costar transwell polycarbonate or PET filters, 0.4 μm pore size) and cultured (DMEM) for 10 to 25 days. Compounds are dissolved in appropriate solvent (like DMSO, 1-20 mM stock solutions). […] The transport solution (TL) is applied to the apical or basolateral donor side for measuring A-B or B-A permeability (3 filter replicates), respectively. Samples are collected at the start and end of experiment from the donor and at various time intervals for up to 2 hours also from the receiver side for concentration measurement by HPLC-MS/MS or scintillation counting. Sampled receiver volumes are replaced with fresh receiver solution.
Efflux ratio (ER)=permeability B-A/permeability A-B

[3] = target: QPCTL (Homo sapiens (Human), UniProt Q9NXS2); assay: Assay A: biochemical QPCTL activity assay (MALDI-TOF MS); settings: read-out: Inhibition of QPCTL: IC50
Sequence of QPCTL (Q9NXS2 whole entry): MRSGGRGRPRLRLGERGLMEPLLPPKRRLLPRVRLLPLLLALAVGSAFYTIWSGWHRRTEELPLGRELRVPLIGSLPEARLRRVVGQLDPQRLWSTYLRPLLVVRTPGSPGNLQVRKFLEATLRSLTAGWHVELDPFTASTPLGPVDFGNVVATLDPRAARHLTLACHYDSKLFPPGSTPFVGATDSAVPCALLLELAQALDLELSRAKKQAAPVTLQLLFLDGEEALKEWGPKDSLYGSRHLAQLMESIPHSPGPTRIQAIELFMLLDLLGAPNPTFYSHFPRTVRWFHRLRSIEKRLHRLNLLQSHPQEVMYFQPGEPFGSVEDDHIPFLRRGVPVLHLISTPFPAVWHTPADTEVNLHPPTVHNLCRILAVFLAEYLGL
Description: (§1) QPCT or QPCTL dependent conversion of N-terminal glutamine to pyroglutamate of CD47 was monitored via MALDI-TOF MS. Test compounds were dissolved in 100% DMSO and serially diluted into clear 1,536-well microtiter plates. Enzymatic reactions were set up in assay buffer containing 20 mM Tris pH 7.5, 0.1 mM TCEP, 0.01% BSA, and 0.001% Tween20. […] The plates were incubated for 10 min in a humidified incubator at 24° C. Subsequently, 2.5 μL of CD47 peptide substrate surrogate (^19[…]^33) was added to each well (final concentration: 10 μM for QPCTL/20 μM for QPCT). The plates were mixed for 30 sec at 1,000 rpm and subsequently incubated for 40 min in a humidified incubator at 24° C. […] The plates were sealed with an adhesive foil, mixed for 30 s at 1,000 rpm and stored at room temperature until preparation of the MALDI target plates. […] QPCT or QPCTL activity was monitored by calculating the ratio between product and internal standard signals followed by normalization to high (100% activity) and low (0% activity) controls. Determination of compound potencies was obtained by fitting the dose-response data to a four-parameter logistical equation.

[4] = system: murine hepatocytes; assay: Assay E: Stability in murine hepatocytes; format: in vitro ADME, mouse; settings: 1 μM
Description: The metabolic degradation of the test compound is assayed in a murine hepatocyte suspension.
Murine hepatocytes (typically cryopreserved) are incubated in an appropriate buffer system (e.g. Dulbecco's modified eagle medium plus 3.5 μg glucagon/500 mL, 2.5 mg insulin/500 mL and 3.75 mg/500 mL hydrocortison) containing 5% species serum.
Following a (typically) 30 min preincubation in an incubator (37° C., 10% CO2) 5 μl of test compound solution (80 μM; from 2 mM in DMSO stock solution diluted 1:25 with medium) are added into 395 μl hepatocyte suspension (cell density in the range 0.25-5 Mio cells/mL, typically 1 Mio cells/mL; final concentration of test compound 1 μM, final DMSO concentration 0.05%).
The cells are incubated for six hours (incubator, orbital shaker) and samples (2 μl) are taken at 0, 0.5, 1, 2, 4 and 6 hours. Samples are transferred into acetonitrile and pelleted by centrifugation (5 min). The supernatant is transferred to a new 96-deepwell plate, evaporated under nitrogen and resuspended.
CLint is calculated as follows CL_[…]=Dose/AUC=(C0/CD)/(AUD+clast/k)×1000/60. C0: initial concentration in the incubation [μM], CD: cell density of vital cells [10e6cells/mL], AUD: area under the data [μM×h], clast: concentration of last data point [μM], k: slope of the regression line for parent decline [h−1].
The calculated in vitro hepatic intrinsic clearance can be scaled up to the intrinsic in vivo hepatic Clearance and used to predict hepatic in vivo blood clearance (CL) by the use of a liver model (well stirred model).
CL_[…]_INVIVO[ml/min/kg]=(CL_[…][μL/min/10e6cells]×hepatocellularity[10e6cells/g liver]×liver factor[g/kg bodyweight])/1000
CL[ml/min/kg]=CL_[…]_INVIVO[ml/min/kg]×hepatic blood flow[ml/min/kg]/(CL_[…]_INVIVO[ml/min/kg]+hepatic blood flow[ml/min/kg])
Hepatocellularity,mouse:120×10e6cells/g liver
Liver factor,mouse:55 g/kg bodyweight
Blood flow,mouse:90 ml/(min×kg)

[5] = system: SIRPα signalling induced by Raji cells; assay: Assay B: SIRPα signalling assay using Raji cells; format: cell-based; settings: Homo sapiens, read-out: Inhibition of SIRPα signalling induced by Raji cells: IC50
Description: Bioassay reagent 1 of the PathHunter Bioassay detection kit (DiscoverX 93-0001) was added to each well of the plate using a multichannel pipette followed by a 15 min incubation at room temperature. Afterwards bioassay reagent 2 was added followed by 60 min incubation at room temperature (incubation in the dark).
The analysis of the data was performed using the luminescence signal generated by betagalactosidase in the PathHunter reporter cell line. The luminescence measurement was done using a Pherastar Multi-Mode Reader.

[6] = system: CYP3A4 mRNA; assay: Assay D: CYP induction screening assay in primary human hepatocytes; format: in vitro ADME; settings: 48 h
Description: Cryopreserved plateable human hepatocytes (single donor, BioIVT) were thawed and plated in Collagen-I coated 96-well-plates at a cell density of 0.07 million cells per well.
After a 6 h attachment period, the seeding medium was replaced by serum-free William's medium E supplemented with Matrigel (0.25 mg/ml) and allowed to recover overnight. 24 h post-seeding, serum-free Williams E medium containing the test compound at a final concentration of 10 μM and a final DMSO content of 0.1% and 0.1% DMSO (solvents treated control), respectively, was added to predefined wells. Exposure solutions were renewed after 24 h.
After 48 h of treatment in total, the effect of the test compounds on CYP3A4 mRNA expression was assessed using the QuantiGene Plex Gene Expression Assay. Hepatocytes were lysed and total RNA was extracted using the QuantiGene Sample Processing Kit according to the instructions of the manufacturer.
mRNA quantification was conducted using a customized QuantiGene Plex Panel to analyse CYP3A4 and the housekeeper genes RPL32, EIF4E2 and GUSB according to the instructions of the manufacturer and measured on a Luminex™ instrument. Signal was reported as median fluorescence intensity (MFI), which is proportional to the number of target RNA molecules present in the sample.
For calculation of CYP3A4 mRNA induction, the signal for CYP3A4 was normalized against the geometric mean of the signal obtained for the housekeeper genes for hepatocytes exposed to test compounds in relation to solvent-treated samples according to the following equation:
n-fold induction=(MFI CYP3A4 (treated)/Xgeo MFI (RPL32,EIF4E2,GUSB))/(MFI CYP3A4 (solvent control)/Xgeo MFI (RPL32,EIF4E2,GUSB))

[7] = target: QPCT (Homo sapiens (Human), UniProt Q16769); assay: Assay A: biochemical QPCT activity assay (MALDI-TOF MS); settings: read-out: Inhibition of QPCT: IC50
Sequence of QPCT (Q16769 29-361): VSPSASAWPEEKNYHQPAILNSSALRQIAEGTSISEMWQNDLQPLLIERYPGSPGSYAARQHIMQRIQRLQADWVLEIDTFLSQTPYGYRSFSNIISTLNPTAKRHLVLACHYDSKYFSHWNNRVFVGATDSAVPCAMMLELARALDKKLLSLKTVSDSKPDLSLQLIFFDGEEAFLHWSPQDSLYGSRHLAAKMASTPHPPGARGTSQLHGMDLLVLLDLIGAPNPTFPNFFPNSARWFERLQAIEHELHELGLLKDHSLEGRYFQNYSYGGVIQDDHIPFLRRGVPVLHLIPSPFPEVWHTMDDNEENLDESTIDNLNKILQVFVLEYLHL
Description: as §1

Row | SMILES | IC50 [1] | efflux ratio [2] | Papp A→B [2] | IC50 [3] | Mouse Hepatocyte Stability QH [4] | IC50 [5] | n-fold induction of CYP3A4 at 10 μM [6] | IC50 [7]
1 | Cc1ncc(-c2cc(C#N)c(N3CCC(F)(c4nncn4C)CC3)c(-c3ccc(F)nc3)c2)o1 [Example 2] | 36 nM | 3.3 | 26 ×10⁻⁶ cm/s | 2 nM | 15% | 180 nM | 1.6 n-fold | 4 nM
2 | Cc1ncc(-c2cc(C#N)c(N3CCC(F)(c4nncn4C)CC3)c(-c3ccc(F)nc3)c2)cn1 [Example 7] | 37 nM | 7.9 | 4.8 ×10⁻⁶ cm/s | 3 nM | 48% | 100 nM | 0.7 n-fold | 4 nM
3 | Cn1cnnc1C1(F)CCN(c2c(C#N)cc(-c3cccnc3)cc2-c2ccc(F)nc2)CC1 [Example 6] | 33 nM | 4.6 | 19 ×10⁻⁶ cm/s | 3 nM | 35% | 139 nM | 1.8 n-fold | 4 nM
4 | Cn1cc(-c2ccc(-c3ccc(F)nc3)c(N3CCC(c4nncn4C)CC3)c2C#N)cn1 [Compound 35, reference compound] | 9 nM | 12.2 | 4.9 ×10⁻⁶ cm/s | 2 nM | 16% | 28 nM | 3.0 n-fold | 4 nM
5 | Cn1cnnc1C1(F)CCN(c2c(C#N)cc(-c3ccnnc3)cc2-c2ccc(F)nc2)CC1 [Example 8] | 651 nM | 20.3 | 0.7 ×10⁻⁶ cm/s | 2 nM | 20% | 267 nM | 0.9 n-fold | 3 nM
6 | Cn1cc(-c2cc(C#N)c(N3CCC(F)(c4nncn4C)CC3)c(-c3ccc(F)nc3)c2)cn1 [Example 5] | 25 nM | 6.7 | 5.4 ×10⁻⁶ cm/s | 2 nM | <12% | 52 nM | 7.7 n-fold | 2 nM
7 | Cn1cnnc1C1CCN(c2c(-c3ccc(F)nc3)ccc(-c3ccnc(N)c3)c2C#N)CC1 [Compound 44, reference compound] | 67 nM | 47.9 | 0.5 ×10⁻⁶ cm/s | 1 nM | 65% | 121 nM | 1.0 n-fold | 5 nM
8 | Cn1cnnc1C1(F)CCN(c2c(C#N)cc(C(C)(C)O)cc2-c2ccc(F)nc2)CC1 [Example 1] | 88 nM | 11.9 | 4.2 ×10⁻⁶ cm/s | 1 nM | 23% | 26 nM | 2.2 n-fold | 1 nM
9 | Cn1cnnc1C1(F)CCN(c2c(C#N)cc(-c3cnc(C(F)(F)F)nc3)cc2-c2ccc(F)nc2)CC1 [Example 9] | 67 nM | 5.2 | 4.8 ×10⁻⁶ cm/s | 3 nM | 20% | 108 nM | 1.4 n-fold | 6 nM
10 | Cc1nn(C)c(C)c1-c1cc(C#N)c(N2CCC(F)(c3nncn3C)CC2)c(-c2ccc(F)nc2)c1 [Example 3] | 45 nM | 7.8 | 11 ×10⁻⁶ cm/s | 4 nM | 25% | 330 nM | 1.7 n-fold | 5 nM
11 | Cc1nn(C)cc1-c1cc(C#N)c(N2CCC(F)(c3nncn3C)CC2)c(-c2ccc(F)nc2)c1 [Example 4] | 26 nM | 8.8 | 5 ×10⁻⁶ cm/s | 2 nM | 21% | 90 nM | 2.0 n-fold | 3 nM
